Test system: M. tuberculosis H37Rv growth inhibition
Test: M. tuberculosis H37Rv growth inhibitors, H37Rv strain (AID 1626)
Conditions: for IC90: measured here: IC90 against H37Rv; for CC50: measured here: Vero cell cytotoxicity

Structure (SMILES)	IC50 [µM]	IC90 [µM]	CC50 [µM]
CCc1c(O)nc(SCC(=O)Nc2ccc3c(c2)CCC3)[nH]c1=O	57.4	> 100	
N#CC1=C(S)N(c2ccccc2)C(c2ccc(-c3ccc(Cl)c(Cl)c3)o2)NC1=O (configuration not stated)	41	> 100	
CN1/C(=C/C(=O)c2nc(S(C)(=O)=O)ncc2Cl)C(C)(C)c2ccccc21	12	13.7	> 40
COC(=O)/C(=C1/Oc2cc(C)oc(=O)c2S1)C(F)(F)F	0.698	23.8	6.33
c1ccc(Nc2nc(-c3ccccn3)cs2)cc1	0.376	0.854	> 40
CCOC(=O)c1cn[nH]c1N		> 100	
Cc1ccc(OC(=O)c2ccc(Br)o2)cc1	65.4	> 100	
Cc1ccc(-n2c(C)cc(C3N=C(N)Nc4nc5ccccc5n43)c2C)c(C)c1 (configuration not stated)	8.26	10.8	> 40
O=C(CSc1ncnc2c1oc1ccccc12)OCc1ccccc1	7.79	26.8	
CCCCCCC(=O)Nc1nc(C)c(-c2csc(Nc3ccccc3OC)n2)s1	5.48	9.63	> 40
Cc1ccc(-c2ccc(/C=C/C(=O)c3ccccc3)o2)cc1	19.6	> 100	24.7
CCOc1ccc(N/C(C)=C/C(=O)c2ccc(C)o2)cc1	13.3	> 100	
CCOc1[nH]n(-c2ccccc2)c(=O)c1C=Nc1ccc(OC)cc1		> 100	
O=C(COC(=O)c1ccccc1Br)NCCC1=CCCCC1	17.6	> 100	
CN(c1ccccc1)c1nc(N2CCCC2)nc(-n2ccnc2)n1	3.05	3.54	> 40
Cc1ccc(-c2cc(C(F)F)n3ncc(C(=O)Nc4c(C)nn(Cc5ccccc5Cl)c4C)c3n2)cc1	2.16	> 100	24.4
CCCCCOc1ccc(C(=O)NCC(=O)NCC(=O)OCC)cc1	5.74	6.53	> 40
Nc1nc(-c2ccc(F)cc2)cs1	23.8	> 100	
COc1ccccc1/C=C/C(=O)Oc1cccc2cccnc12	2.8	3.05	37.9
CN(C)c1ccc(N=Nc2nc3ccccc3n2C)cc1	0.939	2.73	> 40
CC/C(=C(\c1ccc(O)cc1)c1ccc(OCCN(C)C)cc1)c1ccccc1	8.76	12.3	14.1

Structure (SMILES)	IC50 [µM]	IC90 [µM]	CC50 [µM]
Cc1ccc2nc(/C(C#N)=C\c3ccc([N+](=O)[O-])o3)[nH]c2c1	< 0.195	< 0.195	3.11
CCOc1ccc(N/C(C)=C\C(=O)c2ccc3c(c2)OCCO3)cc1	5.85	> 100	
O=C(CSc1cccc2cccnc12)N1CCCC1			27.4
CCCc1nn(C)c(C(=O)Nc2ccc(CC)cc2)c1Cl		> 100	
O=C1C=C(c2cccs2)C[C@H](c2ccccc2)[C@H]1n1nnc([N+](=O)[O-])n1	3.8	7.5	< 0.078
COc1cc(/C=C/C(=O)c2c(O)n(CCc3ccccc3)c(=O)[nH]c2=O)ccc1O	7.57	11.3	20.2
O=C(NCc1cccnc1)/C(=C/c1ccc(-c2ccc(Cl)cc2)o1)S(=O)(=O)c1ccccc1	3.9	29.7	24
COc1ccc(NC(=O)CSCc2ccc(C)cc2)cc1	26.5	> 100	
O=C(OCC#CCSc1nnc(-c2ccc(Br)cc2)o1)c1cccs1	< 0.195	2.44	
O=C(C[n+]1cc(-c2ccccc2)n2c1CCC2)N1c2ccccc2Sc2ccccc21	22.5	> 100	
O=C(Oc1ccc(/C=N/O)cc1)c1ccccc1Cl	28.5	> 100	
Nc1c2c(nc3ccc(Br)cc13)N(C1CCCCC1)CC2	8.28	11.1	> 40
COc1cc2c(cc1NCc1ccc3c(c1)OCO3)oc1ccccc12	89.1	> 100	
C(=C\c1nccc2c1[nH]c1ccccc12)/c1ccccc1	8.41	11.3	29.4
CCOC(=O)c1ccc(NC(=O)CCc2ccc(CC)o2)cc1	2.25	17.2	
CC(C)(C)C(=O)/C(=C/c1ccncc1)n1cncn1	8.39	11.7	5.11
COc1ccc2c(c1)CCc1c-2nc2ccccc2c1N1CCOCC1	11.5	18.6	> 40
CCOC(=O)c1ccc(NC(=O)CCc2nc(-c3cccc(C)c3)no2)cc1	2.76	> 100	
CC(C)N1C(=O)NC(=O)C2(Cc3cc([N+](=O)[O-])ccc3N(C)C2c2ccccc2)C1=O (configuration not stated)	17.8	52.1	> 40
O=c1c2c(nc3c(-c4ccc(Cl)cc4)c[nH]n13)CCC2	12.9	25.6	18.9
CCCCc1ccc(NC(=O)C(C)CC)cc1 (configuration not stated)	6.21	> 100	
